Experimental data published in patent publication US20200270225A1, “Chiral Diacylhydrazine Ligands for Modulating the Expression of Exogenous Genes via an Ecdysone Receptor Complex” (Intrexon Corporation, priority 2007, published 2020).
pEC50: −log10 of the molar value. Like-named read-outs stand apart in the source and are kept apart here.

Columns and labels:
[1] = target: wild-type Choristoneura fumiferana EcR (D, E and F domains) (Choristoneura fumiferana, UniProt O77240); format: cell-based; conditions: WT-CtEcR, 3T3 Cells; for RMFI (relative maximum fold induction): relative to GS-E ligand
How it was run: (§1)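 NIH3T3 cells were transiently co-transfected with GAL4-DBD fused to CfEcR DEF domains (wild-type or V390I/Y410E/E274V), VP16-AD fused to chimeric human/Locusta RXR, and a GAL4-response luciferase reporter. Ligand was given at 8 doses, 0.01–33 µM, 0.33% DMSO, luciferase read at 48 h. EC50 came from fold induction over DMSO via three-parameter logistic fit; Relative Max FI was taken versus GS™-E ligand.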

[2] = target: T1, [V390I/Y410E/E274V]-CfEcR (Choristoneura fumiferana, UniProt O77240); format: cell-based; conditions: 3T3 Cells; for RMFI (relative maximum fold induction): relative to GS-E ligand
T1 construct: assay construct b835
How it was run: as §1

Caco-2 cell monolayers = assay: Bidirectional permeability through Caco-2 cell monolayers; format: in vitro ADME
Description: The test compounds were prepared as 5 μM in HBSSg with a maximum DMSO concentration <1%. Confluent monolayers of Caco-2 cells, 21 to 28 days old were prepared. The receiver well was prepared with 1% BSA in modified Hanks buffer HBSSg, and the apical and basolateral sides of Caco-2 cell were maintained at pH 7.4±0.2. Two monolayers were dosed in each direction (N=2): the apical side was dosed for (A→B) assessment and the basolateral side was dosed for (B→A) assessment. The test compound concentration was measured for both apical and basolateral sides at a time point of 120 minutes using a generic LC/MS/MS method with a minimum 4 point calibration curve. The values in FIG. 13 are: the percent recovery of the test compound from Transwell® wells containing Caco-2 cell monolayers; apparent permeability (Papp) in both directions; efflux ratio (Papp B→A)/(Papp A→B); absorption potential of a test compound classified as either Low or High; efflux classification is significant when efflux ≥3.0 and Papp (B→A)≥1.0×10-6 cm/s. […] Also, the efflux rate for the R enantiomer is lower.

[3] = system: IL-12 transgene in transduced AdDCs; assay: In vitro IL-12 transgene induction by transduced AdDCs from healthy volunteers; format: cell-based, human; conditions: observed in 2 out of the 3 AdDC preparations
Description: Immature DCs are harvested, counted and tested for viability. Approximately 6-7×10^7 DCs are transduced with the adenoviral vector at the optimal multiplicity of infection (the optimal MOI, between 500 and 1000, to be finalized) for the optimal viral adsorption time (between 2 h and 4 h, to be finalized). After transduction, the cells are washed repeatedly to remove any unadsorbed viral particles. Aliquots are set aside for sterility, endotoxin, mycoplasma, DC Phenotype and IL-12 transgene induction assays. The target dose of 5×10^7 cells is held at 4° C. in saline until release testing is complete.
The in vitro testing of the IL-12 transgene induction by the transduced AdDCs takes a minimum of two days for the results to be available and therefore IL-12 production in response to (R)-2-ethyl-3-methoxy-benzoic acid N′-(1-tert-butyl-butyl)-N′-(3,5-dimethyl-benzoyl)-hydrazide will not be a release criterion for the intratumoral injection of the AdDCs. […] Therefore, the in vitro IL-12 induction results are used for analysis of the treatment outcome. As such, the transduced AdDCs are used for injection after viral transduction and washing. Any left-over untransduced and transduced DCs are cryopreserved for future analysis as necessary.

| SMILES | pEC50 ([1]; R) | RMFI (relative maximum fold induction) ([1]; R) | pEC50 ([2]; R) | RMFI (relative maximum fold induction) ([2]; R) | efflux rate, compared (Caco-2 cell monolayers; Caco-2) | apparent permeability (Papp), compared (Caco-2 cell monolayers; Caco-2, A→B and B→A, 5 μM, 120 minutes) | induced IL-12 expression level [3] [ng/million cells/24 h] | pEC50 ([1]; rac) | RMFI (relative maximum fold induction) ([1]; rac) | pEC50 ([2]; rac) | RMFI (relative maximum fold induction) ([2]; rac) |
| --- | --- | --- | --- | --- | --- | --- | --- | --- | --- | --- | --- |
| CCC[C@@H](N(NC(=O)c1cccc(OC)c1CC)C(=O)c1cc(C)cc(C)c1)C(C)(C)C [Example 1, (R)-3,5-Dimethyl-benzoic Acid N-(1-tert-butyl-butyl)-N′-(2-ethyl-3-methoxy-benzoyl)-hydrazide] | 8.65 | 0.97 | 9.89 | 0.82 | lower | more permeable than the racemate in both directions | 80 |  |  |  |  |
| CCCC(N(NC(=O)c1cccc(OC)c1CC)C(=O)c1cc(C)cc(C)c1)C(C)(C)C (racemic) [rac-1, rac-2-ethyl-3-methoxy-benzoic acid N′-(1-tert-butyl-butyl)-N′-(3,5-dimethyl-benzoyl)-hydrazide] |  |  |  |  |  |  |  | 8.79 | 1.05 | 9.85 | 1.05 |
